Results on five molecules are retold here after patent US4594329A, “CRF analogs” (The Salk Institute for Biological Studies, priority 1984, dated 1986).

Square brackets hold non-standard residues; d marks the D form. Peptide text beside a SMILES is read from it. Nle = CCCC[C@H](N)C(=O)O; Orn = NCCC[C@H](N)C(=O)O

Assay [1] has as its system cultured rat pituitary cells. As to the kind of experiment: secretion of ACTH and β-endorphin by cultured rat pituitary cells. Format: cell-based. Particulars: general procedure of Example III. As for the experimental part: (§1) The synthetic peptide AHC and oCRF were examined for their effects on the secretion of ACTH and β-endorphin in vitro and was also in vivo. The potency of synthetic oCRF to stimulate the secretion of ACTH and β-endorphin by cultured rat pituitary cells was measured using the procedure as generally set forth in Endocrinology, 91, 562 (1972). […] In vivo testing is carried out using the general procedure set forth in C. Rivier et al., Science, 218, 377 (1982).

Assay [2] is described as follows: lowering of blood pressure, in vivo testing. As to conditions: general procedure of Example III. The method, then:
as §1

Consider `CCCC[C@H](NC(=O)[C@H](CCC(=O)O)NC(=O)[C@H](CC(C)C)NC(=O)[C@H](CCCC)NC(=O)[C@H](CCC(=O)O)NC(=O)[C@H](CCCNC(=N)N)NC(=O)[C@H](CC(C)C)NC(=O)[C@H](CC(C)C)NC(=O)[C@H](Cc1c[nH]cn1)NC(=O)[C@H](Cc1ccccc1)NC(=O)[C@@H](NC(=O)[C@H](CC(C)C)NC(=O)[C@H](CC(=O)O)NC(=O)[C@H](CC(C)C)NC(=O)[C@H](CO)NC(=O)[C@@H](NC(=O)[C@@H]1CCCN1C(=O)[C@@H]1CCCN1C(=O)[C@H](N)Cc1ccc(O)cc1)[C@@H](C)CC)[C@@H](C)O)C(=O)N[C@@H](C)C(=O)N[C@@H](CCCCN)C(=O)N[C@@H](C)C(=O)N[C@@H](CCC(=O)O)C(=O)N[C@@H](CCC(N)=O)C(=O)N[C@@H](CCC(=O)O)C(=O)N[C@@H](C)C(=O)N[C@@H](CCC(=O)O)C(=O)N[C@@H](CCC(N)=O)C(=O)N[C@@H](C)C(=O)N[C@@H](C)C(=O)N[C@@H](CC(C)C)C(=O)N[C@@H](CC(N)=O)C(=O)N[C@@H](CCCNC(=N)N)C(=O)N[C@@H](CC(C)C)C(=O)N[C@@H](CC(C)C)C(=O)N[C@@H](CC(C)C)C(=O)N[C@@H](CCC(=O)O)C(=O)N[C@@H](CCC(=O)O)C(=O)N[C@@H](C)C(N)=O` [[D-Tyr^3, Nle^18,21]-AHC(3-41)] (H-[dY]PPISLDLTFHLLRE[Nle]LE[Nle]AKAEQEAEQAALNRLLLEEA-NH2), for which, in assay [1], the “stimulates the secretion of ACTH and β-END-LI” value (from here on “stimulates the secretion”) was “stimulates the secretion of ACTH and β-END-LI”. In addition, the “lowering of blood pressure” value in assay [2] is “very significant lowering of blood pressure”.
For the molecule `CC[C@H](C)[C@H](NC(=O)[C@@H](NC(=O)[C@H](CCC(=O)O)NC(=O)[C@H](CC(C)C)NC(=O)[C@H](CC(C)C)NC(=O)[C@H](CCCCN)NC(=O)[C@H](CCCNC(=N)N)NC(=O)[C@H](CC(N)=O)NC(=O)[C@H](CO)NC(=O)[C@H](Cc1c[nH]cn1)NC(=O)[C@H](C)NC(=O)[C@H](CCC(N)=O)NC(=O)[C@H](CCC(=O)O)NC(=O)[C@H](C)NC(=O)[C@H](CC(C)C)NC(=O)[C@H](CCC(N)=O)NC(=O)[C@H](CCC(=O)O)NC(=O)[C@H](CCCN)NC(=O)[C@H](C)NC(=O)[C@H](CCSC)NC(=O)[C@H](CCC(=O)O)NC(=O)[C@H](CC(C)C)NC(=O)[C@@H](NC(=O)[C@H](CCC(=O)O)NC(=O)[C@H](CCCNC(=N)N)NC(=O)[C@H](CC(C)C)NC(=O)[C@H](CC(C)C)NC(=O)[C@H](Cc1c[nH]cn1)NC(=O)[C@H](Cc1ccccc1)NC(=O)[C@@H](NC(=O)[C@H](CC(C)C)NC(=O)[C@H](CC(=O)O)NC(=O)[C@H](CC(C)C)NC(=O)[C@H](CO)NC(=O)[C@@H](NC(=O)[C@@H]1CCCN1C(=O)[C@@H]1CCCN1C(=O)[C@H](CCC(=O)O)NC(=O)[C@H](CCC(N)=O)NC(=O)[C@@H](N)CO)[C@@H](C)CC)[C@@H](C)O)C(C)C)[C@@H](C)CC)C(N)=O` [[Gln^2, Orn^23, Glu^29, Leu^38]-rCRF] (H-SQEPPISLDLTFHLLREVLEMA[Orn]EQLAEQAHSNRKLLEII-NH2), the “stimulates the secretion” value in assay [1] is “stimulates the secretion of ACTH and β-END-LI”. Moreover, in assay [2], the “lowering of blood pressure” value is listed as “very significant lowering of blood pressure”.
Turning to `CCCC[C@H](NC(=O)[C@H](CCC(=O)O)NC(=O)[C@H](CC(C)C)NC(=O)[C@H](CCCC)NC(=O)[C@H](CCC(=O)O)NC(=O)[C@H](CCCNC(=N)N)NC(=O)[C@H](CC(C)C)NC(=O)[C@H](CC(C)C)NC(=O)[C@H](Cc1c[nH]cn1)NC(=O)[C@H](Cc1ccccc1)NC(=O)[C@@H](NC(=O)[C@H](CC(C)C)NC(=O)[C@H](CC(=O)O)NC(=O)[C@H](CC(C)C)NC(=O)[C@H](CO)NC(=O)[C@@H](NC(=O)[C@@H]1CCCN1)[C@@H](C)CC)[C@@H](C)O)C(=O)N[C@@H](C)C(=O)N[C@@H](CCCNC(=N)N)C(=O)N[C@@H](C)C(=O)N[C@@H](CCC(=O)O)C(=O)N[C@@H](CCC(N)=O)C(=O)N[C@@H](CCC(=O)O)C(=O)N[C@@H](C)C(=O)N[C@@H](CCC(=O)O)C(=O)N[C@@H](CCC(N)=O)C(=O)N[C@@H](C)C(=O)N[C@@H](C)C(=O)N[C@@H](CC(C)C)C(=O)N[C@@H](CC(N)=O)C(=O)N[C@@H](CCCNC(=N)N)C(=O)N[C@@H](CC(C)C)C(=O)N[C@@H](CC(C)C)C(=O)N[C@@H](CC(C)C)C(=O)N[C@@H](CCC(=O)O)C(=O)N[C@@H](CCC(=O)O)C(=O)N[C@@H](C)C(N)=O` [[Nle^18,21,Arg^23]-AHC(5-41)] (H-PISLDLTFHLLRE[Nle]LE[Nle]ARAEQEAEQAALNRLLLEEA-NH2), the “stimulates the secretion” value in assay [1] is “stimulates the secretion of ACTH and β-END-LI”. Besides, the “lowering of blood pressure” value in assay [2] is given as “very significant lowering of blood pressure”.
On to `CCCC[C@H](NC(=O)[C@H](CCC(=O)O)NC(=O)[C@H](CC(C)C)NC(=O)[C@H](CCCC)NC(=O)[C@H](CCC(=O)O)NC(=O)[C@H](CCCNC(=N)N)NC(=O)[C@H](CC(C)C)NC(=O)[C@H](CC(C)C)NC(=O)[C@H](Cc1c[nH]cn1)NC(=O)[C@H](Cc1ccccc1)NC(=O)[C@@H](NC(=O)[C@H](CC(C)C)NC(=O)[C@H](CC(=O)O)NC(=O)[C@H](CC(C)C)NC(=O)[C@H](CO)NC(=O)[C@@H](N)[C@@H](C)CC)[C@@H](C)O)C(=O)N[C@@H](C)C(=O)N[C@@H](CCCCN)C(=O)N[C@@H](C)C(=O)N[C@@H](CCC(=O)O)C(=O)N[C@@H](CCC(N)=O)C(=O)N[C@@H](CCC(=O)O)C(=O)N[C@@H](C)C(=O)N[C@@H](CCC(=O)O)C(=O)N[C@@H](CCC(N)=O)C(=O)N[C@@H](C)C(=O)N[C@@H](C)C(=O)N[C@@H](CC(C)C)C(=O)N[C@@H](CC(N)=O)C(=O)N[C@@H](CCCNC(=N)N)C(=O)N[C@@H](CCCNC(=N)N)C(=O)N[C@@H](CC(C)C)C(=O)N[C@@H](CC(C)C)C(=O)N[C@@H](CCC(=O)O)C(=O)N[C@@H](CCC(=O)O)C(=O)N[C@@H](C)C(N)=O` [[Nle^18,21,Arg^36]-AHC(6-41)] (H-ISLDLTFHLLRE[Nle]LE[Nle]AKAEQEAEQAALNRRLLEEA-NH2), for which the “stimulates the secretion” value in assay [1] was “stimulates the secretion of ACTH and β-END-Li”. The “lowering of blood pressure” value in assay [2] is on record as “very significant lowering of blood pressure”.
Regarding `CCCC[C@H](NC(=O)[C@H](CCC(=O)O)NC(=O)[C@H](CCCNC(=N)N)NC(=O)[C@H](CC(C)C)NC(=O)[C@H](CC(C)C)NC(=O)[C@H](Cc1c[nH]cn1)NC(=O)[C@H](Cc1ccccc1)NC(=O)[C@@H](NC(=O)[C@H](CC(C)C)NC(=O)[C@H](CC(=O)O)NC(=O)[C@H](CC(C)C)NC(=O)[C@H](CO)NC(=O)[C@@H](NC(=O)[C@@H]1CCCN1C(=O)[C@@H]1CCCN1C(=O)[C@H](CCC(=O)O)NC(=O)[C@@H](N)CCC(N)=O)[C@@H](C)CC)[C@@H](C)O)C(=O)N[C@@H](CC(C)C)C(=O)N[C@@H](CCC(=O)O)C(=O)N[C@@H](CCSC)C(=O)N[C@H](C(=O)N[C@@H](CCCCN)C(=O)N[C@@H](C)C(=O)N[C@@H](CC(=O)O)C(=O)N[C@@H](CCC(N)=O)C(=O)N[C@@H](CC(C)C)C(=O)N[C@@H](C)C(=O)N[C@@H](CCC(N)=O)C(=O)N[C@@H](CCC(N)=O)C(=O)N[C@@H](C)C(=O)N[C@@H](Cc1c[nH]cn1)C(=O)N[C@@H](CO)C(=O)N[C@@H](CC(N)=O)C(=O)N[C@@H](CCCNC(=N)N)C(=O)N[C@@H](CCCCN)C(=O)N[C@@H](Cc1ccc(O)cc1)C(=O)N[C@@H](CC(C)C)C(=O)N[C@@H](CC(=O)O)C(=O)N[C@@H](CCC(=O)O)C(=O)N[C@@H](C)C(N)=O)[C@@H](C)O` [[Nle^18,Tyr^37,Glu^40]-oCRF(2-41)] (H-QEPPISLDLTFHLLRE[Nle]LEMTKADQLAQQAHSNRKYLDEA-NH2), the “stimulates the secretion” value in assay [1] was “stimulates the secretion of ACTH and β-END-LI”. The “lowering of blood pressure” value in assay [2] is given as “very significant lowering of blood pressure”.
